Data from the supplement of paper PMC7017272.
± gives the standard deviation of the averaged measurements.

Assays:
Conditions in all cases: treatment time: 3 days
UT-SCC-73 [1] = test: drug sensitivity score (DSS); higher = more sensitive; extreme values may be limits of the assay
Procedure, shortened: (§1)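 Using 384-well plates, 500 cells/well of HPV-negative HNSCC cell lines were grown on plastic, on 500 µg/mL Matrigel or Myogel coatings, or embedded in Matrigel or Myogel with rat collagen I. They were treated with compounds at five 10-fold concentrations for 3 days, and luminescence from CellTiter-Glo 2.0 was normalised to vehicle (0.1% DMSO) and cell-killing control wells. IC50, maximal inhibition and drug sensitivity score were derived from percent-inhibition dose–response curves in the FIMM pipeline.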

UT-SCC-81 = test: as above
Procedure, shortened: as §1

UT-SCC-8 [2] = test: as above
Procedure, shortened: as §1

UT-SCC-106A = test: relative IC50 (midpoint of the fitted curve; maximal inhibition may be below 50%); higher = less potent
Procedure, shortened: as §1

UT-SCC-14 = test: as above
Procedure, shortened: as §1

UT-SCC-42A = test: as above
Procedure, shortened: as §1

UT-SCC-42B = test: as above
Procedure, shortened: as §1

UT-SCC-44 = test: as above
Procedure, shortened: as §1

UT-SCC-73 [3] = test: as above
Procedure, shortened: as §1

UT-SCC-8 [4] = test: as above
Procedure, shortened: as §1

UT-SCC-24A = test: relative IC50 (midpoint of the fitted curve; maximal inhibition may be below 50%); higher = less potent
Procedure: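 HNSCC cell lines (500 cells/well, 384-well) were cultured on plastic, on top of (2D) or embedded (3D) in Matrigel or human leiomyoma matrix Myogel (500 ug/mL; Myogel 3D mixed with rat collagen I). Cells were treated for 3 days with 5 ten-fold concentrations of each drug, and viability was read by CellTiter-Glo. Viability was normalised to DMSO (0% inhibition) and 100 uM benzethonium chloride (100% inhibition) controls and fitted with the FIMM DSRT pipeline to give IC50 (nM), maximal % inhibition and the drug sensitivity score (DSS). Suffixes _1/_2/_3 on drug names are replicates.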

[5] = culture condition: embedded in Myogel + collagen I
[6] = culture condition: on top of Matrigel
[7] = culture condition: on top of Myogel
[8] = culture condition: plastic 2D (no matrix)
[9] = culture condition: embedded in Matrigel

COc1cc(F)c(F)c(Nc2ccc(I)cc2F)c1NS(=O)(=O)C1(C[C@H](O)CO)CC1 [Refametinib] showed a drug sensitivity score (UT-SCC-73 [1]; [5]) of 16 ± 3.4 DSS, a drug sensitivity score (UT-SCC-73 [1]; [6]) of 24 ± 0.8 DSS and a drug sensitivity score (UT-SCC-73 [1]; [7]) of 15.1 ± 1.1 DSS. The drug sensitivity score (UT-SCC-73 [1]; [8]) was 20 ± 1.4 DSS, the drug sensitivity score (UT-SCC-81; [9]) was 29.8 ± 2 DSS and the drug sensitivity score (UT-SCC-81; [5]) was 5.87 ± 0.35 DSS. It also gave a drug sensitivity score (UT-SCC-81; [6]) of 21.1 ± 1.4 DSS, a drug sensitivity score (UT-SCC-81; [7]) of 5.53 ± 1.2 DSS and a drug sensitivity score (UT-SCC-81; [8]) of 8.8 ± 0.96 DSS. For the same compound, the drug sensitivity score (UT-SCC-8 [2]; [9]) was 15.7 ± 1.7 DSS, the drug sensitivity score (UT-SCC-8 [2]; [5]) was 6.63 ± 3.1 DSS and the drug sensitivity score (UT-SCC-8 [2]; [6]) was 12.5 ± 1.5 DSS. For the same compound, the drug sensitivity score (UT-SCC-8 [2]; [7]) was 10.3 ± 2 DSS, the drug sensitivity score (UT-SCC-8 [2]; [8]) was 10.9 ± 2.8 DSS and the “relative IC50” value (UT-SCC-106A; [9]) was 15.2 nM. For the same compound, the “relative IC50” value (UT-SCC-106A; [6]) was 15.5 nM, the “relative IC50” value (UT-SCC-106A; [7]) was 498 nM and the “relative IC50” value (UT-SCC-106A; [8]) was 25.7 nM. For the same compound, the “relative IC50” value (UT-SCC-14; [5]) was 238 nM, the “relative IC50” value (UT-SCC-14; [6]) was 146 nM and the “relative IC50” value (UT-SCC-14; [7]) was 299 nM. For the same compound, the “relative IC50” value (UT-SCC-42A; [9]) was 36.3 nM, the “relative IC50” value (UT-SCC-42A; [5]) was 94.1 nM and the “relative IC50” value (UT-SCC-42A; [6]) was 20.8 nM. The “relative IC50” value (UT-SCC-42A; [8]) was 41.5 nM, the “relative IC50” value (UT-SCC-42B; [9]) was 16.6 nM and the “relative IC50” value (UT-SCC-42B; [6]) was 79.5 nM. For the same compound, the “relative IC50” value (UT-SCC-42B; [7]) was 757 nM, the “relative IC50” value (UT-SCC-42B; [8]) was 218 nM and the “relative IC50” value (UT-SCC-44; [9]) was 56.2 nM. The “relative IC50” value (UT-SCC-44; [5]) was 417 nM, the “relative IC50” value (UT-SCC-44; [6]) was 58.4 nM and the “relative IC50” value (UT-SCC-44; [7]) was 569 nM. For the same compound, the “relative IC50” value (UT-SCC-44; [8]) was 61.7 nM, the “relative IC50” value (UT-SCC-73 [3]; [9]) was 38.5 nM and the “relative IC50” value (UT-SCC-73 [3]; [6]) was 31.8 nM. The “relative IC50” value (UT-SCC-73 [3]; [7]) was 132 nM, the “relative IC50” value (UT-SCC-73 [3]; [8]) was 64.4 nM and the “relative IC50” value (UT-SCC-8 [4]; [9]) was 259 nM. The “relative IC50” value (UT-SCC-8 [4]; [5]) was 1760 nM, the “relative IC50” value (UT-SCC-8 [4]; [6]) was 410 nM and the “relative IC50” value (UT-SCC-8 [4]; [8]) was 602 nM. The “relative IC50” value (UT-SCC-24A; [9]) was 3.14 nM, the “relative IC50” value (UT-SCC-24A; [6]) was 8.76 nM and the “relative IC50” value (UT-SCC-24A; [8]) was 9.97 nM.
